Organism: Rattus norvegicus
Assay: DrugMatrix - Regimen: Daily Repeat
Type: toxicity, organism-based, Sprague-Dawley
Design: regimen Daily Repeat, gender Male, age 6-8 weeks
Conditions: in vivo, po, route oral GAVAGE, vehicle .5 % CMC; for BASOPHIL / EOSINOPHIL / ERYTHROCYTE COUNT / HEMATOCRIT / HEMOGLOBIN / LEUKOCYTE COUNT / LYMPHOCYTE / MEAN CORPUSCULAR HEMOGLOBIN / MEAN CORPUSCULAR HEMOGLOBIN CONCENTRATION / MEAN CORPUSCULAR VOLUME / MONOCYTE / NEUTROPHIL / PLATELET COUNT: tissue Blood; for ALANINE AMINOTRANSFERASE / ALKALINE PHOSPHATASE / ASPARTATE AMINOTRANSFERASE / BLOOD UREA NITROGEN / CHLORIDE / CHOLESTEROL / CREATINE PHOSPHOKINASE / CREATININE / GLUCOSE / PHOSPHORUS / POTASSIUM / SODIUM / TOTAL PROTEIN: tissue Plasma
[1] = 0 mg/kg, 72 h, dose level Control, time 3 day
[2] = 0 mg/kg, 120 h, dose level Control, time 5 day
[3] = 30 mg/kg, 72 h, dose level Low, time 3 day
[4] = 30 mg/kg, 120 h, dose level Low, time 5 day

CCN(CC)CCNC(=O)c1cc(Cl)c(N)cc1OC [METOCLOPRAMIDE]
BASOPHIL [1]: 0%
EOSINOPHIL [1]: 0.4%
ERYTHROCYTE COUNT [1]: 6.43 x10E6/uL
HEMATOCRIT [1]: 37.36%
HEMOGLOBIN [1]: 13.98 G/DL
LEUKOCYTE COUNT [1]: 13 x10E3/uL
LYMPHOCYTE [1]: 81.4%
MEAN CORPUSCULAR HEMOGLOBIN [1]: 21.9 pg
MEAN CORPUSCULAR HEMOGLOBIN CONCENTRATION [1]: 37.4 G/DL
MEAN CORPUSCULAR VOLUME [1]: 58.52 fL
MONOCYTE [1]: 0.4%
NEUTROPHIL [1]: 18%
PLATELET COUNT [1]: 1386 x10E3/uL
ALANINE AMINOTRANSFERASE [1]: 39.33 u/L
ALKALINE PHOSPHATASE [1]: 283.83 u/L
ASPARTATE AMINOTRANSFERASE [1]: 69.5 u/L
BLOOD UREA NITROGEN [1]: 14.83 mg/dL
CHLORIDE [1]: 107.33 MEQ/L
CHOLESTEROL [1]: 75.17 mg/dL
CREATINE PHOSPHOKINASE [1]: 107.67 u/L
CREATININE [1]: 0.48 mg/dL
GLUCOSE [1]: 172.5 mg/dL
PHOSPHORUS [1]: 10.48 mg/dL
POTASSIUM [1]: 6.9 MEQ/L
SODIUM [1]: 152.33 MEQ/L
TOTAL PROTEIN [1]: 5.9 G/DL
BASOPHIL [2]: 0%
EOSINOPHIL [2]: 0.4%
ERYTHROCYTE COUNT [2]: 6.96 x10E6/uL
HEMATOCRIT [2]: 41.12%
HEMOGLOBIN [2]: 15.24 G/DL
LEUKOCYTE COUNT [2]: 11.06 x10E3/uL
LYMPHOCYTE [2]: 88.6%
MEAN CORPUSCULAR HEMOGLOBIN [2]: 21.96 pg
MEAN CORPUSCULAR HEMOGLOBIN CONCENTRATION [2]: 37.1 G/DL
MEAN CORPUSCULAR VOLUME [2]: 59.12 fL
MONOCYTE [2]: 0.2%
NEUTROPHIL [2]: 10.8%
PLATELET COUNT [2]: 1155.8 x10E3/uL
ALANINE AMINOTRANSFERASE [2]: 36.33 u/L
ALKALINE PHOSPHATASE [2]: 340.33 u/L
ASPARTATE AMINOTRANSFERASE [2]: 68.33 u/L
BLOOD UREA NITROGEN [2]: 15 mg/dL
CHLORIDE [2]: 108.17 MEQ/L
CHOLESTEROL [2]: 74.67 mg/dL
CREATINE PHOSPHOKINASE [2]: 110.67 u/L
CREATININE [2]: 0.47 mg/dL
GLUCOSE [2]: 171.33 mg/dL
PHOSPHORUS [2]: 10.05 mg/dL
POTASSIUM [2]: 6.7 MEQ/L
SODIUM [2]: 155.5 MEQ/L
TOTAL PROTEIN [2]: 6.33 G/DL
BASOPHIL [3]: 0%
EOSINOPHIL [3]: 0%
ERYTHROCYTE COUNT [3]: 6.75 x10E6/uL
HEMATOCRIT [3]: 41.55%
HEMOGLOBIN [3]: 15.45 G/DL
LEUKOCYTE COUNT [3]: 12.45 x10E3/uL
LYMPHOCYTE [3]: 81%
MEAN CORPUSCULAR HEMOGLOBIN [3]: 22.95 pg
MEAN CORPUSCULAR VOLUME [3]: 61.7 fL
MONOCYTE [3]: 0%
NEUTROPHIL [3]: 19%
PLATELET COUNT [3]: 1187 x10E3/uL
ALANINE AMINOTRANSFERASE [3]: 40.67 u/L
ALKALINE PHOSPHATASE [3]: 299.33 u/L
ASPARTATE AMINOTRANSFERASE [3]: 95.67 u/L
BLOOD UREA NITROGEN [3]: 12.33 mg/dL
CHLORIDE [3]: 107.33 MEQ/L
CHOLESTEROL [3]: 78.67 mg/dL
CREATINE PHOSPHOKINASE [3]: 421.67 u/L
CREATININE [3]: 0.77 mg/dL
GLUCOSE [3]: 175.67 mg/dL
PHOSPHORUS [3]: 11.53 mg/dL
POTASSIUM [3]: 7.6 MEQ/L
SODIUM [3]: 150.67 MEQ/L
TOTAL PROTEIN [3]: 6.13 G/DL
BASOPHIL [4]: 0%
EOSINOPHIL [4]: 0%
ERYTHROCYTE COUNT [4]: 7 x10E6/uL
HEMATOCRIT [4]: 41.57%
HEMOGLOBIN [4]: 15.33 G/DL
LEUKOCYTE COUNT [4]: 13.57 x10E3/uL
LYMPHOCYTE [4]: 91%
MEAN CORPUSCULAR HEMOGLOBIN [4]: 21.93 pg
MEAN CORPUSCULAR HEMOGLOBIN CONCENTRATION [4]: 36.87 G/DL
MEAN CORPUSCULAR VOLUME [4]: 59.4 fL
MONOCYTE [4]: 0.33%
NEUTROPHIL [4]: 8.67%
PLATELET COUNT [4]: 1231.67 x10E3/uL
ALANINE AMINOTRANSFERASE [4]: 41 u/L
ALKALINE PHOSPHATASE [4]: 236.67 u/L
ASPARTATE AMINOTRANSFERASE [4]: 70.33 u/L
BLOOD UREA NITROGEN [4]: 14.67 mg/dL
CHLORIDE [4]: 104.33 MEQ/L
CHOLESTEROL [4]: 63.33 mg/dL
CREATINE PHOSPHOKINASE [4]: 157 u/L
CREATININE [4]: 0.5 mg/dL
GLUCOSE [4]: 156.33 mg/dL
PHOSPHORUS [4]: 9.97 mg/dL
POTASSIUM [4]: 6.37 MEQ/L
SODIUM [4]: 151.67 MEQ/L
TOTAL PROTEIN [4]: 6.23 G/DL

Reference: ChEMBL document CHEMBL3885881, “DrugMatrix”
